Measurements from EP0082731A1, “The use of peptides as medicaments” (NOVO INDUSTRI A/S, priority 1981, dated 1983).

How the values were obtained:
[1] = tested on: isolated perfused rat pancreas; assay: IRI (insulin) release from the isolated perfused rat pancreas
Source text: Such a use should be especially safe as no hypoglycaemia will occur during treatment because of the lack of IRI releasing effect in the presence of hypoglycaemia and normoglycaemia.
Furthermore, it is stated therein that compounds of formula I show no or minor, negligible metabolic effects. […] Based thereupon it is surprising that compounds of formula I have an insulin releasing effect on animals primed with glucose corresponding to hyperglycaemia.

Normoglycaemic Rats = assay: Experiment D: effect on plasma glucose and plasma IRI levels in normoglycaemic rats; format: in vivo, Wistar rats; settings: normally fed rats; for Blood glucose / Plasma IRI: i.v. injection at 0 min, equimolar doses (glucagon 1 mg/kg, glucagon(1-21) 0.77 mg/kg), mean, N = 10
Description: Glucagon (-1 mg/kg) and an equimolar dosis of glucagon(1-21), i.e. 0.77 mg/kg, were injected intravenously at the beginning time (time: 0 minutes) to normally fed male Wistar rats weighing 150 g (+/- 5 g). Blood samples were taken from the orbital plexus at the times -5, 2, 5, 10, 15, 30, and 60 minutes. Blood glucose was assayed according to the hexokinase method and plasma insulin was assayed by RIA. […] Contrary to glucagon, glucagon(1-21) had no effect on these parameters. Mean blood glucose values (N = 10) are stated in Table VI below, and mean plasma IRI values (N = 10) are stated in Table VII below.

[2] = tested on: isolated perfused rat pancreas; settings: known effect of glucagon; cited from earlier work
rat free fat cells = assay: Lipolytic effect on rat free fat cells in vitro; format: cell-based; settings: compared with glucagon
rats = assay: Metabolic effects after administration to normally fasted and fed rats in vivo
[3] = i.v., glucagon 1 mg/kg, glucagon(1-21) 0.77 mg/kg
[4] = buffer glucose concentration 2.0 mg/ml

Substance: Glucagon [reference compound]
- insulin releasing effect ([1]; at hyperglycaemia): have this effect
- insulin releasing effect ([1]; in the presence of normoglycaemia and hypoglycaemia): has an insulin releasing effect
- Blood glucose (Normoglycaemic Rats; time 2 min): 1.2 mg/mL
- Plasma IRI (Normoglycaemic Rats; time 2 min): 95 µU/ml
- Blood glucose (Normoglycaemic Rats; time 5 min): 1.3 mg/mL
- Plasma IRI (Normoglycaemic Rats; time 5 min): 98 µU/ml
- Blood glucose (Normoglycaemic Rats; time 10 min): 1.3 mg/mL
- Plasma IRI (Normoglycaemic Rats; time 10 min): 82 µU/ml
- Blood glucose (Normoglycaemic Rats; time 15 min): 1.4 mg/mL
- Plasma IRI (Normoglycaemic Rats; time 15 min): 67 µU/ml
- Blood glucose (Normoglycaemic Rats; time 30 min): 1.5 mg/mL
- Plasma IRI (Normoglycaemic Rats; time 30 min): 53 µU/ml
- Blood glucose (Normoglycaemic Rats; time 60 min): 1.1 mg/mL
- Plasma IRI (Normoglycaemic Rats; time 60 min): 17 µU/ml
- Blood glucose (Normoglycaemic Rats; time -5 min): 0.9 mg/mL
- Plasma IRI (Normoglycaemic Rats; time -5 min): 19 µU/ml
- effect on blood glucose (Normoglycaemic Rats; [3]): significantly increasing effect
- effect on plasma IRI (Normoglycaemic Rats; [3]): significantly increasing effect
- insulin release [2]: releases insulin

Substance: des-pentapeptide-(22-26)-glucagon [des(22-26)glucagon]
- insulin releasing effect ([1]; at hyperglycaemia): have this effect
- insulin releasing effect [1, 4]: possesses an insulin releasing effect
- lipolytic effect (rat free fat cells): negligible
- metabolic effects (rats): No metabolic effects have been found

Substance: glucagon(1-26) (HSQGTFTSDYSKYLDSRRAQDFVQWL; Glucagon; UniProt P01275 53-78, looked up, fragment)
- insulin releasing effect ([1]; at hyperglycaemia): have this effect
- insulin releasing effect [1, 4]: possesses an insulin releasing effect
- lipolytic effect (rat free fat cells): negligible
- metabolic effects (rats): No metabolic effects have been found
